From US5672715A, “Herbicidal substituted 3-aryl-pyrazoles” (Monsanto Company, priority 1995, dated 1997)

Key:
Assay type in all cases: in vivo
Barnyardgrass [1] = assay: pre-emergence herbicide test; settings: Echinochloa crus-galli, pre-emergence, 0.25 lb/A; read-out: % plant inhibition
How it was run: (§1)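 Percent inhibition of emergence and growth was recorded roughly 14 days after seeding. Compound was incorporated into, or applied onto, a topsoil cover layer over seeds in pans kept in a greenhouse and watered from below.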

Bedstraw Catchweed [2] = assay: pre-emergence herbicide test; settings: Galium aparine, pre-emergence, 0.25 lb/A; read-out: % plant inhibition
How it was run: as §1

Birdseye Speedwell [3] = assay: pre-emergence herbicide test; settings: pre-emergence, 0.25 lb/A; read-out: % plant inhibition
How it was run: as §1

Blackgrass [4] = assay: pre-emergence herbicide test; settings: Alopecurus myosuroides, pre-emergence, 0.25 lb/A; read-out: % plant inhibition
How it was run: as §1

Cocklebur [5] = assay: pre-emergence herbicide test; settings: Xanthium strumarium, pre-emergence, 0.25 lb/A; read-out: % plant inhibition
How it was run: as §1

Common Chickweed [6] = assay: pre-emergence herbicide test; settings: pre-emergence, 0.25 lb/A; read-out: % plant inhibition
How it was run: as §1

Corn [7] = assay: pre-emergence herbicide test; settings: Zea mays, pre-emergence, 0.25 lb/A; read-out: % plant inhibition
How it was run: as §1

Downy Brome [8] = assay: pre-emergence herbicide test; settings: Bromus tectorum, pre-emergence, 0.25 lb/A; read-out: % plant inhibition
How it was run: as §1

Giant Foxtail [9] = assay: pre-emergence herbicide test; settings: Setaria faberi, pre-emergence, 0.25 lb/A; read-out: % plant inhibition
How it was run: as §1

Green Foxtail [10] = assay: pre-emergence herbicide test; settings: Setaria viridis, pre-emergence; 0.25 lb/A; read-out: % plant inhibition
How it was run: as §1

Morning Glory [11] = assay: pre-emergence herbicide test; settings: Ipomoea, pre-emergence, 0.25 lb/A; read-out: % plant inhibition
How it was run: as §1

Rape [12] = assay: pre-emergence herbicide test; settings: pre-emergence, 0.25 lb/A; read-out: % plant inhibition
How it was run: as §1

Seedling Johnsongrass [13] = assay: pre-emergence herbicide test; settings: Sorghum halepense, pre-emergence, 0.25 lb/A; read-out: % plant inhibition
How it was run: as §1

Soybean [14] = assay: pre-emergence herbicide test; settings: Glycine max, pre-emergence, 0.25 lb/A; read-out: % plant inhibition
How it was run: as §1

Velvetleaf [15] = assay: pre-emergence herbicide test; settings: Abutilon theophrasti, pre-emergence, 0.25 lb/A; read-out: % plant inhibition
How it was run: as §1

Wheat [16] = assay: pre-emergence herbicide test; settings: Triticum aestivum, pre-emergence, 0.25 lb/A; read-out: % plant inhibition
How it was run: as §1

Wild Oats [17] = assay: pre-emergence herbicide test; settings: Avena fatua, pre-emergence, 0.25 lb/A; read-out: % plant inhibition
How it was run: as §1

Barnyardgrass [18] = assay: post-emergence herbicide test; settings: Echinochloa crus-galli, post-emergence, 0.25 lb/A; read-out: % plant inhibition
How it was run: (§2)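 Percent inhibition of each species scored after post-emergence spraying of two- to three-week-old greenhouse plants. Spray solution carried about 0.4% by volume emulsifier, delivered by atomizer at 170.3 kPa (10 psig) and 1870 L/Ha total volume.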

Bedstraw Catchweed [19] = assay: post-emergence herbicide test; settings: Galium aparine, post-emergence, 0.25 lb/A; read-out: % plant inhibition
How it was run: as §2

Birdseye Speedwell [20] = assay: post-emergence herbicide test; settings: post-emergence, 0.25 lb/A; read-out: % plant inhibition
How it was run: as §2

Blackgrass [21] = assay: post-emergence herbicide test; settings: Alopecurus myosuroides, post-emergence, 0.25 lb/A; read-out: % plant inhibition
How it was run: as §2

Cocklebur [22] = assay: post-emergence herbicide test; settings: Xanthium strumarium, post-emergence, 0.25 lb/A; read-out: % plant inhibition
How it was run: as §2

Common Chickweed [23] = assay: post-emergence herbicide test; settings: post-emergence, 0.25 lb/A; read-out: % plant inhibition
How it was run: as §2

Corn [24] = assay: post-emergence herbicide test; settings: Zea mays, post-emergence, 0.25 lb/A; read-out: % plant inhibition
How it was run: as §2

Downy Brome [25] = assay: post-emergence herbicide test; settings: Bromus tectorum, post-emergence, 0.25 lb/A; read-out: % plant inhibition
How it was run: as §2

Giant Foxtail [26] = assay: post-emergence herbicide test; settings: Setaria faberi, post-emergence, 0.25 lb/A; read-out: % plant inhibition
How it was run: as §2

Green Foxtail [27] = assay: post-emergence herbicide test; settings: Setaria viridis, post-emergence, 0.25 lb/A; read-out: % plant inhibition
How it was run: as §2

Morning Glory [28] = assay: post-emergence herbicide test; settings: Ipomoea, post-emergence, 0.25 lb/A; read-out: % plant inhibition
How it was run: as §2

Rape [29] = assay: post-emergence herbicide test; settings: post-emergence, 0.25 lb/A; read-out: % plant inhibition
How it was run: as §2

Seedling Johnsongrass [30] = assay: post-emergence herbicide test; settings: Sorghum halepense, post-emergence, 0.25 lb/A; read-out: % plant inhibition
How it was run: as §2

Soybean [31] = assay: post-emergence herbicide test; settings: Glycine max, post-emergence, 0.25 lb/A; read-out: % plant inhibition
How it was run: as §2

Velvetleaf [32] = assay: post-emergence herbicide test; settings: Abutilon theophrasti, post-emergence, 0.25 lb/A; read-out: % plant inhibition
How it was run: as §2

Wheat [33] = assay: post-emergence herbicide test; settings: Triticum aestivum, post-emergence, 0.25 lb/A; read-out: % plant inhibition
How it was run: as §2

Wild Oats [34] = assay: post-emergence herbicide test; settings: Avena fatua, post-emergence, 0.25 lb/A; read-out: % plant inhibition
How it was run: as §2

SMILES | inhibition at 280.212 g/ha (Barnyardgrass [1]) [%] | inhibition at 280.212 g/ha (Bedstraw Catchweed [2]) [%] | inhibition at 280.212 g/ha (Birdseye Speedwell [3]) [%] | inhibition at 280.212 g/ha (Blackgrass [4]) [%] | inhibition at 280.212 g/ha (Cocklebur [5]) [%] | inhibition at 280.212 g/ha (Common Chickweed [6]) [%] | inhibition at 280.212 g/ha (Corn [7]) [%] | inhibition at 280.212 g/ha (Downy Brome [8]) [%] | inhibition at 280.212 g/ha (Giant Foxtail [9]) [%] | inhibition at 280.212 g/ha (Green Foxtail [10]) [%] | inhibition at 280.212 g/ha (Morning Glory [11]) [%] | inhibition at 280.212 g/ha (Rape [12]) [%] | inhibition at 280.212 g/ha (Seedling Johnsongrass [13]) [%] | inhibition at 280.212 g/ha (Soybean [14]) [%] | inhibition at 280.212 g/ha (Velvetleaf [15]) [%] | inhibition at 280.212 g/ha (Wheat [16]) [%] | inhibition at 280.212 g/ha (Wild Oats [17]) [%] | inhibition at 280.212 g/ha (Barnyardgrass [18]) [%] | inhibition at 280.212 g/ha (Bedstraw Catchweed [19]) [%] | inhibition at 280.212 g/ha (Birdseye Speedwell [20]) [%] | other results
Cc1c(-c2cc(CS)c(Cl)cc2F)nn(C)c1C(F)(F)F [Compound 30] | 70 | 40 | 50 | 20 | 25 | 35 | 15 | 5 | 25 | 98 | 20 | 5 | 95 | 20 | 90 | 0 | 0 | 60 | 40 | 98 | inhibition at 280.212 g/ha (Blackgrass [21]): 30%; inhibition at 280.212 g/ha (Cocklebur [22]): 60%; inhibition at 280.212 g/ha (Common Chickweed [23]): 75%; inhibition at 280.212 g/ha (Corn [24]): 20%; inhibition at 280.212 g/ha (Downy Brome [25]): 25%; inhibition at 280.212 g/ha (Giant Foxtail [26]): 20%; inhibition at 280.212 g/ha (Green Foxtail [27]): 65%; inhibition at 280.212 g/ha (Morning Glory [28]): 65%; inhibition at 280.212 g/ha (Rape [29]): 60%; inhibition at 280.212 g/ha (Seedling Johnsongrass [30]): 70%; inhibition at 280.212 g/ha (Soybean [31]): 65%; inhibition at 280.212 g/ha (Velvetleaf [32]): 85%; inhibition at 280.212 g/ha (Wheat [33]): 15%; inhibition at 280.212 g/ha (Wild Oats [34]): 25%
COC(=O)CSCc1cc(-c2nn(C)c(C(F)(F)F)c2C)c(F)cc1Cl [Compound 31] | 5 | 30 | 25 | 5 | 15 | 25 | 10 | 5 | 10 | 20 | 45 | 5 | 40 | 3 | 80 | 0 | 5 | 70 | 70 | 100 | inhibition at 280.212 g/ha (Blackgrass [21]): 20%; inhibition at 280.212 g/ha (Cocklebur [22]): 99%; inhibition at 280.212 g/ha (Common Chickweed [23]): 95%; inhibition at 280.212 g/ha (Corn [24]): 50%; inhibition at 280.212 g/ha (Downy Brome [25]): 55%; inhibition at 280.212 g/ha (Giant Foxtail [26]): 50%; inhibition at 280.212 g/ha (Green Foxtail [27]): 75%; inhibition at 280.212 g/ha (Morning Glory [28]): 80%; inhibition at 280.212 g/ha (Rape [29]): 75%; inhibition at 280.212 g/ha (Seedling Johnsongrass [30]): 90%; inhibition at 280.212 g/ha (Soybean [31]): 35%; inhibition at 280.212 g/ha (Velvetleaf [32]): 99%; inhibition at 280.212 g/ha (Wheat [33]): 20%; inhibition at 280.212 g/ha (Wild Oats [34]): 35%
Cc1c(-c2cc(CSCC(C)C)c(Cl)cc2F)nn(C)c1C(F)(F)F [Compound 32] | 5 | 5 | 45 | 10 | 25 | 5 | 5 | 0 | 65 | 40 | 10 | 5 | 85 | 8 | 25 | 0 | 0 | 35 | 45 | 90 | inhibition at 280.212 g/ha (Blackgrass [21]): 25%; inhibition at 280.212 g/ha (Cocklebur [22]): 65%; inhibition at 280.212 g/ha (Common Chickweed [23]): 20%; inhibition at 280.212 g/ha (Corn [24]): 15%; inhibition at 280.212 g/ha (Downy Brome [25]): 25%; inhibition at 280.212 g/ha (Giant Foxtail [26]): 45%; inhibition at 280.212 g/ha (Green Foxtail [27]): 65%; inhibition at 280.212 g/ha (Morning Glory [28]): 40%; inhibition at 280.212 g/ha (Rape [29]): 50%; inhibition at 280.212 g/ha (Seedling Johnsongrass [30]): 45%; inhibition at 280.212 g/ha (Soybean [31]): 20%; inhibition at 280.212 g/ha (Velvetleaf [32]): 85%; inhibition at 280.212 g/ha (Wheat [33]): 15%; inhibition at 280.212 g/ha (Wild Oats [34]): 20%
Cc1c(-c2cc(C(=O)OCc3ccccc3)c(Cl)cc2F)nn(C)c1C(F)(F)F [Compound 41] | 50 | 60 | 100 | 15 | 25 | 55 | 0 | 30 | 40 | 100 | 0 | 5 | 50 | 0 | 90 | 3 | 10 | 65 | 100 | 100 | inhibition at 280.212 g/ha (Blackgrass [21]): 20%; inhibition at 280.212 g/ha (Cocklebur [22]): 95%; inhibition at 280.212 g/ha (Common Chickweed [23]): 98%; inhibition at 280.212 g/ha (Corn [24]): 35%; inhibition at 280.212 g/ha (Downy Brome [25]): 30%; inhibition at 280.212 g/ha (Giant Foxtail [26]): 5%; inhibition at 280.212 g/ha (Green Foxtail [27]): 90%; inhibition at 280.212 g/ha (Morning Glory [28]): 75%; inhibition at 280.212 g/ha (Rape [29]): 40%; inhibition at 280.212 g/ha (Seedling Johnsongrass [30]): 70%; inhibition at 280.212 g/ha (Soybean [31]): 15%; inhibition at 280.212 g/ha (Velvetleaf [32]): 99%; inhibition at 280.212 g/ha (Wheat [33]): 15%; inhibition at 280.212 g/ha (Wild Oats [34]): 20%
C#CCOC(=O)c1cc(-c2nn(C)c(C(F)(F)F)c2C)c(F)cc1Cl [Compound 42] | 35 | 80 | 30 | 15 | 65 | 40 | 5 | 10 | 0 | 95 | 60 | 5 | 0 | 0 | 65 | 0 | 5 | 65 | 100 | 95 | inhibition at 280.212 g/ha (Blackgrass [21]): 20%; inhibition at 280.212 g/ha (Cocklebur [22]): 85%; inhibition at 280.212 g/ha (Common Chickweed [23]): 95%; inhibition at 280.212 g/ha (Corn [24]): 25%; inhibition at 280.212 g/ha (Downy Brome [25]): 30%; inhibition at 280.212 g/ha (Giant Foxtail [26]): 0%; inhibition at 280.212 g/ha (Green Foxtail [27]): 40%; inhibition at 280.212 g/ha (Morning Glory [28]): 70%; inhibition at 280.212 g/ha (Rape [29]): 40%; inhibition at 280.212 g/ha (Seedling Johnsongrass [30]): 45%; inhibition at 280.212 g/ha (Soybean [31]): 10%; inhibition at 280.212 g/ha (Velvetleaf [32]): 98%; inhibition at 280.212 g/ha (Wheat [33]): 15%; inhibition at 280.212 g/ha (Wild Oats [34]): 20%
